A short description of series [1]: Cytotoxicity, alamarBlue, 72 h. It is filed as cell-based. To be noted: human, HepG2 cells; 72 h, alamarBlue; read-out: HepG2 cells CC50. As to the method: (§1) For cytotoxicity tests, several mammalian cell lines were used. […] Primary cell cultures were also used to evaluate cytotoxicity. […] BMDM cells were differentiated for one week with 30 % […] from L929 cell line.
(§2) The in vitro cytotoxicity of the selected nitrofurans was evaluated in HepG2, RAW 264.7 cells, splenocytes and BMDM. In each well of a 96-well microtitre plate, 100 μL containing 10,000 HepG2 or RAW 264.7 cells were incubated for 24h at 37 °C and 5 % CO2 to allow the cells to settle. For primary cells, 100 μL containing 100,000 BMDM or 1,000,000 splenocytes were added to each well. Subsequently, […] of one-half serial dilutions of each compound diluted in DMEM (for HepG2 cells), RPMI medium (for RAW cells), splenocyte medium (for splenocytes) or BMDM medium supplemented with 10 % GM-CSF (for BMDM), were added to each well. The cytotoxic effect of the compounds was measured after 72 h of incubation at 37 °C and 5 % CO2. For this purpose, a 10 % (v/v) of the alamarBlue™ cell viability reagent (Invitrogen, Fisher Scientific International Inc., Pittsburgh, PA, USA) was added, and the reaction was incubated for 4 h at 37 °C and 5 % CO2. Fluorescence was measured using a Varioskan Lux spectrophotometer (ThermoFisher Scientific, Waltham, MA, USA). Positive controls consisting of 0.1 % (v/v) H2O2, and negative controls, consisting of 0.1 % (v/v) DMSO, were also included on each plate.
(§3) All experiments were carried out in triplicate and included at least three technical replicates. […] The SI was calculated from the CC50/EC50 ratio.

Series [2] is described as follows: Cytotoxicity, alamarBlue, 72 h. It is filed as cell-based, murine. To be noted: mouse, RAW 264.7 cells; 72 h, alamarBlue; read-out: RAW 264.7 cells CC50. As to the method:
as §1, §2, §3
(In general: The colour change of resazurin is a common sign of viable cells or microbes.)

A short description of series [3]: Cytotoxicity in primary splenocytes, alamarBlue, 72 h. The series is classed as cell-based. To be noted: mouse, primary splenocytes from healthy, non-infected mice; 72 h, alamarBlue, uninfected mice; read-out: Splenocytes CC50. The method, then:
as §1, §2, §3

Series [4] can be described thus: Cytotoxicity in bone marrow-differentiated macrophages, alamarBlue, 72 h. To be noted: mouse, bone marrow-differentiated macrophages (BMDM); 72 h, alamarBlue, uninfected mice; read-out: BMDM CC50. It is filed as cell-based. The method, then:
as §1, §2, §3

Series [5] deals with L. donovani-iRFP axenic amastigotes. Nature of the series: ROS production by axenic amastigotes (DCFH-DA, flow cytometry). It is filed as cell-based, Leishmania donovani. The settings on record: compound at its axenic EC50, 3 h. The method, then:
To assess ROS production in L. donovani-iRFP, axenic amastigotes were treated with nitrofurans at the concentration equivalent to their EC50 calculated in viability experiments. As positive control of oxidative stress induction, cultures were treated with 0.01 % H2O2 (v/v), whereas 0.03 % (v/v) DMSO was added as negative control. After an incubation period of 3 h at 37 °C, cells were harvested by centrifugation at 3500 rcf for 10 min, washed in phosphate-buffered saline (PBS), centrifuged again and resuspended in PBS. Cells were labeled with 5 μM 2′,7′-dichlorofluorescein diacetate (DCFH-DA, MedChemExpress) for 30 min at 37 °C. Then, cells were centrifuged at 3500 rcf for 5 min, washed, and resuspended in PBS. The cell suspension was stored at 4 °C until the analysis by flow cytometry, which was performed in a CytoFLEX SRT (Beckman Coulter). The experiment was carried out in triplicate and included three technical replicates.
(In general: In flow cytometry, cells or beads pass a laser one at a time.)

Series [6] relates to S. typhimurium TA100. Nature of the series: Ames mutagenicity test (Ames 384-ISO Well Test). The settings on record: for Mutagenic effect TA100-S9: with metabolic activation (S9 mix); for Mutagenic effect TA100: without S9 mix. In general terms: The Ames test detects mutagens through reverse mutation in bacteria.

Broadly, the CC50 is the concentration that lowers cell viability or growth by half. Regarding `N#Cc1ccc([N+](=O)[O-])o1` [5-nitro-2-furonitrile, 5-Nitro-2-furonitrile], the CC50 at 72 h in series [1] was determined as 21.7 ± 0.39 µM; in series [2], 31.2 ± 5.04 µM; in series [3] it was 8.49 ± 0.52 µM; in series [4], 25.8 ± 0.6 µM. Also, in series [5], the “Negative ROS (unstressed population)” value is on record as 38.2%. Besides, the “Positive ROS (stressed population)” value in series [5] is reported as 61.8%.
Take `O=C1CN(/N=C/c2ccc([N+](=O)[O-])o2)C(=O)N1` [Nitrofurantoin]: the CC50 at 72 h in series [1] is 32 ± 4.58 µM; in series [2] it was 37.2 ± 7.05 µM; in series [3], 33.2 ± 3.5 µM; in series [4] it was 56.3 ± 9.06 µM. Moreover, the “Negative ROS (unstressed population)” value in series [5] is listed as 23.9%. Moreover, the entries for the “Positive ROS (stressed population)” value in series [5] and in series [5] (listed as NITROFURANTOIN) were 76.1 ± 11.6% and 76.1%, respectively.
Take `NC(=O)N/N=C/c1ccc([N+](=O)[O-])o1` [Nitrofurazone]: the CC50 at 72 h in series [1] came out at 65.5 ± 9.67 µM; in series [2], 39.6 ± 7.91 µM; in series [3], 38.9 ± 6.32 µM; in series [4] it was 40.6 ± 1.97 µM. Besides, in series [5], the “Negative ROS (unstressed population)” value was found to be 44.1%. Besides, the “Positive ROS (stressed population)” value in series [5] turned out to be 55.9%. Moreover, the “Mutagenic effect TA100-S9” value in series [6] (0.5 μM) is listed as “+ (0.05)”; in series [6] (5.0 μM), “+ (0.001)”; in series [6] (50.0 μM) it was “- ^b”. The “Mutagenic effect TA100” value in series [6] (0.5 μM) was “+ (0.001)”; in series [6] (5.0 μM) it was “+ (0.05)”; in series [6] (50.0 μM) it was “- ^b”.
As for `O=C1NN(c2ccc(F)c(Cl)c2)C(=O)C1=Cc1ccc([N+](=O)[O-])o1` [PYZD-4409, 1-(3-chloro-4-fluorophenyl)-4-[(5-nitro-2-furyl)methylene]-3,5-pyrazolidinedione], the CC50 at 72 h in series [1] was determined as 16.3 ± 0.56 µM; in series [2] it was 51.7 ± 8.03 µM; in series [3], 11.7 ± 0.5 µM; in series [4], 20.8 ± 6.4 µM. Also, the “Negative ROS (unstressed population)” value in series [5] is recorded as 36.9%. Also, in series [5], the “Positive ROS (stressed population)” value is listed as 63.1%.

The record behind these values is paper PMC12344264, “Mechanistic, in-silico and in vitro studies with nitrofurans reveal potent leishmanicidal activity and inhibition of trypanothione reductase” (International Journal for Parasitology: Drugs and Drug …, 2025).
